Source: patent US20240400555A1 (Initial Therapeutics, Inc., priority 2023, published 2024)

Test system: MV-4-11 cells
Assay: Cell Viability Assay in MV-4-11 Cells
Assay type: cell-based
Settings: Homo sapiens, MV4-11, 72 h, MV-4-11 cells, 72 h, Cell-Titer Glo; read-out: IC50
Outline: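 Luminescent ATP read-out (CellTiter-Glo) after 72 h compound treatment of MV-4-11 leukaemia cells (7,000 per well, IMDM plus 10% FBS). Values expressed relative to DMSO control and derived by four-parameter non-linear regression.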

SMILES | IC50
CN(C)c1nccc(-c2cc3c(N(C(=O)c4ccc(-n5nnc6cccnc65)cc4F)[C@@H]4CCCNC4)nccc3s2)n1 [Example 458, N-[2-[2-(dimethylamino)pyrimidin-4-yl]thieno[3,2-c]pyridin-4-yl]-2-fluoro-N-[(3R)-3-piperidyl]-4-(triazolo[4,5-b]pyridin-3-yl)benzamide] | 390 nM
O=C(c1ccc(-n2nnc3cccnc32)cc1F)N(c1nccc2sc(-c3cc[nH]c(=O)c3)cc12)[C@@H]1CCCNC1 [Example 459, 2-fluoro-N-[2-(2-oxo-1H-pyridin-4-yl)thieno[3,2-c]pyridin-4-yl]-N-[(3R)-3-piperidyl]-4-(triazolo[4,5-b]pyridin-3-yl)benzamide] | 430 nM
COc1cc(-c2cc3c(N(C(=O)c4ccc(-n5nnc6cccnc65)cc4F)[C@@H]4CCCNC4)nccc3s2)ccn1 [Example 460, 2-fluoro-N-[2-(2-methoxy-4-pyridyl)thieno[3,2-c]pyridin-4-yl]-N-[(3R)-3-piperidyl]-4-(triazolo[4,5-b]pyridin-3-yl)benzamide] | 220 nM
CCc1cc(-c2cc3c(N(C(=O)c4ccc(-n5nnc6cccnc65)cc4F)[C@@H]4CCCNC4)nccc3s2)ccn1 [Example 461, N-[2-(2-ethyl-4-pyridyl)thieno[3,2-c]pyridin-4-yl]-2-fluoro-N-[(3R)-3-piperidyl]-4-(triazolo[4,5-b]pyridin-3-yl)benzamide] | 720 nM
O=C(c1ccc(-n2nnc3cccnc32)cc1F)N(c1nccc2sc(-c3ccnc(C(F)(F)F)c3)cc12)[C@@H]1CCCNC1 [Example 462, 2-fluoro-N-[(3R)-3-piperidyl]-4-(triazolo[4,5-b]pyridin-3-yl)-N-[2-[2-(trifluoromethyl)-4-pyridyl]thieno[3,2-c]pyridin-4-yl]benzamide] | 1000 nM
CC(C)(C#N)c1cc(-c2cc3c(N(C(=O)c4ccc(-n5nnc6cccnc65)cc4F)[C@@H]4CCCNC4)nccc3s2)ccn1 [Example 463] | 320 nM
O=C(c1ccc(-n2nnc3cccnc32)cc1F)N(c1nccc2sc(-c3ccccc3)cc12)[C@@H]1CCCNC1 [Example 464, 2-fluoro-N-(2-phenylthieno[3,2-c]pyridin-4-yl)-N-[(3R)-3-piperidyl]-4-(triazolo[4,5-b]pyridin-3-yl)benzamide] | 640 nM
O=C(c1ccc(-n2nnc3cccnc32)cc1F)N(c1nccc2sc(Cc3cccnc3)cc12)[C@@H]1CCCNC1 [Example 465, 2-fluoro-N-[(3R)-3-piperidyl]-N-[2-(3-pyridylmethyl)thieno[3,2-c]pyridin-4-yl]-4-(triazolo[4,5-b]pyridin-3-yl)benzamide] | 240 nM
O=C(c1ccc(-n2nnc3cccnc32)cc1F)N(c1nccc2sc(Cc3ccccc3)cc12)[C@@H]1CCCNC1 [Example 466, N-(2-benzylthieno[3,2-c]pyridin-4-yl)-2-fluoro-N-[(3R)-3-piperidyl]-4-(triazolo[4,5-b]pyridin-3-yl)benzamide] | 440 nM
O=Cc1cccc(-c2cc3c(N(C(=O)c4ccc(-n5nnc6cccnc65)cc4F)[C@@H]4CCCNC4)nccc3s2)c1 [Example 467, 2-fluoro-N-[2-(3-formylphenyl)thieno[3,2-c]pyridin-4-yl]-N-[(3R)-3-piperidyl]-4-(triazolo[4,5-b]pyridin-3-yl)benzamide] | 220 nM
Cc1csc2ccnc(N(C(=O)c3ccc(Nc4ncccn4)cc3F)[C@@H]3CCCNC3)c12 [Example 468, (R)-2-fluoro-N-(3-methylthieno[3,2-c]pyridin-4-yl)-N-(piperidin-3-yl)-4-(pyrimidin-2-ylamino)benzamide] | 120 nM
Cn1cc(-c2ccc(C(=O)N(c3nccc4cc(F)ccc34)[C@@H]3CCCNC3)c(F)c2)nn1 [Example 469, (R)-2-fluoro-N-(6-fluoroisoquinolin-1-yl)-4-(1-methyl-1H-1,2,3-triazol-4-yl)-N-(piperidin-3-yl)benzamide] | 180 nM
Cn1cc(-c2ccc(C(=O)N(c3nccc4cc(Cl)ccc34)[C@@H]3CCCNC3)c(F)c2)nn1 [Example 470, N-(6-chloro-1-isoquinolyl)-2-fluoro-4-(1-methyltriazol-4-yl)-N-[(3R)-3-piperidyl]benzamide] | 91 nM
COc1ccc2c(N(C(=O)c3ccc(-c4cn(C)nn4)cc3F)[C@@H]3CCCNC3)nccc2c1 [Example 471, (R)-2-fluoro-N-(6-methoxyisoquinolin-1-yl)-4-(1-methyl-1H-1,2,3-triazol-4-yl)-N-(piperidin-3-yl)benzamide] | 240 nM
Cn1cc(-c2ccc(C(=O)N(c3nccc4cc(C#N)ccc34)[C@@H]3CCCNC3)c(F)c2)nn1 [Example 472, (R)—N-(6-cyanoisoquinolin-1-yl)-2-fluoro-4-(1-methyl-1H-1,2,3-triazol-4-yl)-N-(piperidin-3-yl)benzamide] | 580 nM
Cc1cccc2ccnc(N(C(=O)c3ccc(Nc4ncncn4)cc3F)[C@@H]3CCCNC3)c12 [Example 473, (R)-4-((1,3,5-triazin-2-yl)amino)-2-fluoro-N-(8-methylisoquinolin-1-yl)-N-(piperidin-3-yl)benzamide] | 300 nM

SMILES | IC50
Cc1cc(F)cc2ccnc(N(C(=O)c3ccc(-c4cn(C)nn4)cc3F)[C@@H]3CCCNC3)c12 [Example 474, (R)-2-fluoro-N-(6-fluoro-8-methylisoquinolin-1-yl)-4-(1-methyl-1H-1,2,3-triazol-4-yl)-N-(piperidin-3-yl)benzamide] | 9.9 nM
Cn1cc(-c2ccc(C(=O)N(c3nccc4sc(Br)cc34)[C@@H]3CCCNC3)cc2O)cn1 [Example 475, N-(2-bromothieno[3,2-c]pyridin-4-yl)-3-hydroxy-4-(1-methylpyrazol-4-yl)-N-[(3R)-3-piperidyl] benzamide] | 4600 nM
Cn1cc(-c2ccc(C(=O)N(c3nccc4sc(C#CCCCO)cc34)[C@@H]3CCCNC3)cc2O)cn1 [Example 476, 3-hydroxy-N-[2-(5-hydroxypent-1-ynyl)thieno[3,2-c]pyridin-4-yl]-4-(1-methylpyrazol-4-yl)-N-[(3R)-3-piperidyl] benzamide] | 220 nM
Cn1cc(-c2ccc(C(=O)N(c3nccc4sc(C#N)cc34)[C@@H]3CCCNC3)c(F)c2)nn1 [Example 477, N-(2-cyanothieno [3,2-c]pyridin-4-yl)-2-fluoro-4-(1-methyltriazol-4-yl)-N-[(3R)-3-piperidyl] benzamide] | 2800 nM
Cn1cc(-c2ccc(C(=O)N(c3nccc4sc(-c5ccnc(N)c5)cc34)[C@@H]3CCCNC3)c(F)c2)nn1 [Example 478, (R)—N-(2-(2-aminopyridin-4-yl)thieno[3,2-c]pyridin-4-yl)-2-fluoro-4-(1-methyl-1H-1,2,3-triazol-4-yl)-N-(piperidin-3-yl)benzamide] | 340 nM
Cn1cc(-c2ccc(C(=O)N(c3nccc4sc(C#CCO)cc34)[C@@H]3CCCNC3)c(F)c2)nn1 [Example 479, (R)-2-fluoro-N-(2-(3-hydroxyprop-1-yn-1-yl)thieno[3,2-c]pyridin-4-yl)-4-(1-methyl-1H-1,2,3-triazol-4-yl)-N-(piperidin-3-yl)benzamide] | 3200 nM
Cn1cc(-c2ccc(C(=O)N(c3nccc4sc(-c5cccc(C(N)=O)c5)cc34)[C@@H]3CCCNC3)c(F)c2)nn1 [Example 480, N-[2-(3-carbamoylphenyl)thieno [3,2-c]pyridin-4-yl]-2-fluoro-4-(1-methyltriazol-4-yl)-N-[(3R)-3-piperidyl] benzamide] | 540 nM
Cn1cc(-c2ccc(C(=O)N(c3nccc4sc(-c5ccc(CO)s5)cc34)[C@@H]3CCCNC3)c(F)c2)nn1 [Example 481, (R)-2-fluoro-N-(2-(5-(hydroxymethyl)thiophen-2-yl)thieno[3,2-c]pyridin-4-yl)-4-(1-methyl-1H-1,2,3-triazol-4-yl)-N-(piperidin-3-yl)benzamide] | 270 nM
Cn1cc(-c2ccc(C(=O)N(c3nccc4sc(-c5cnccn5)cc34)[C@@H]3CCCNC3)c(F)c2)nn1 [Example 482] | 870 nM
Cc1ncc(-c2cc3c(N(C(=O)c4ccc(-c5cn(C)nn5)cc4F)[C@@H]4CCCNC4)nccc3s2)s1 [Example 483, (R)-2-fluoro-4-(1-methyl-1H-1,2,3-triazol-4-yl)-N-(2-(2-methylthiazol-5-yl)thieno[3,2-c]pyridin-4-yl)-N-(piperidin-3-yl)benzamide] | 340 nM
Cn1cc(-c2ccc(C(=O)N(c3nccc4sc(-c5ccnc(N)n5)cc34)[C@@H]3CCCNC3)c(F)c2)nn1 [Example 484, N-[2-(2-aminopyrimidin-4-yl)thieno[3,2-c]pyridin-4-yl]-2-fluoro-4-(1-methyltriazol-4-yl)-N-[(3R)-3-piperidyl]benzamide] | 930 nM
Cn1cc(-c2ccc(C(=O)N(c3nccc4sc(-c5cnn(Cc6cccnc6)c5)cc34)[C@@H]3CCCNC3)c(F)c2)nn1 [Example 485, 2-fluoro-4-(1-methyltriazol-4-yl)-N-[(3R)-3-piperidyl]-N-[2-[1-(3-pyridylmethyl)pyrazol-4-yl]thieno [3,2-c]pyridin-4-yl] benzamide] | 980 nM
Cn1cc(-c2ccc(C(=O)N(c3nccc4sc(/C=C/C(N)=O)cc34)[C@@H]3CCCNC3)c(F)c2)nn1 [Example 486, N-[2-[(E)-3-amino-3-oxo-prop-1-enyl]thieno[3,2-c]pyridin-4-yl]-2-fluoro-4-(1-methyltriazol-4-yl)-N-[(3R)-3-piperidyl]benzamide] | > 10000 nM
Cn1cc(-c2ccc(C(=O)N(c3nccc4sc(Cc5ccccc5)cc34)[C@@H]3CCCNC3)c(F)c2)nn1 [Example 487, N-(2-benzylthieno[3,2-c]pyridin-4-yl)-2-fluoro-4-(1-methyltriazol-4-yl)-N-[(3R)-3-piperidyl]benzamide] | 620 nM
Cn1cc(-c2ccc(C(=O)N(c3nccc4sc(Cc5cccnc5)cc34)[C@@H]3CCCNC3)c(F)c2)nn1 [Example 488, 2-fluoro-4-(1-methyltriazol-4-yl)-N-[(3R)-3-piperidyl]-N-[2-(3-pyridylmethyl)thieno[3,2-c]pyridin-4-yl]benzamide] | 650 nM
